Assay results reported in PMC8775867, “The Systems of Naringenin with Solubilizers Expand Its Capability to Prevent Neurodegenerative Diseases” (International Journal of Molecular Sciences, 2022).
≈ marks a conversion by molar mass, not a printed value.

Molecular target: T1, tyrosinase
T1 construct: gene PPO3
Test: L-DOPA oxidation, absorbance […] nm
Assay type: biochemical
Conditions: L-DOPA substrate, phosphate buffer pH 6.8, room temperature

Row | IC50 | IC50 (NAR in DMSO) | Compound
1 | 5883 ± 23 µg/mL (≈ 31.3 mM) | – | O=C(O)CCCCCCCC(=O)O [azelaic acid]
2 | – | 4615 ± 89 µg/mL (≈ 17 mM) | O=C1C[C@@H](c2ccc(O)cc2)Oc2cc(O)cc(O)c21 [naringenin]
